Laboratory results from patent US20140107109A1, “AMINO-DIHYDROTHIAZINE AND AMINO-DIOXIDO DIHYDROTHIAZINE COMPOUNDS AS BETA-SECRETASE ANTAGONISTS AND METHODS OF USE” (Amgen Inc., priority 2012, published 2014).
Like-named read-outs stand apart in the source and are kept apart here.

Tests used:
Cathepsin D (Cat D) = target: T1, Cathepsin D (Cat D) (Homo sapiens, UniProt P07339); assay: In vitro enzymatic Cathepsin D (Cat D) FRET assay; format: biochemical; details: read-out: CatD IC50
T1 construct: Recombinant Cat D was expressed in CHO cells; made in house; host or cells: CHO cells
T1 sequence (P07339 65-412, species assumed): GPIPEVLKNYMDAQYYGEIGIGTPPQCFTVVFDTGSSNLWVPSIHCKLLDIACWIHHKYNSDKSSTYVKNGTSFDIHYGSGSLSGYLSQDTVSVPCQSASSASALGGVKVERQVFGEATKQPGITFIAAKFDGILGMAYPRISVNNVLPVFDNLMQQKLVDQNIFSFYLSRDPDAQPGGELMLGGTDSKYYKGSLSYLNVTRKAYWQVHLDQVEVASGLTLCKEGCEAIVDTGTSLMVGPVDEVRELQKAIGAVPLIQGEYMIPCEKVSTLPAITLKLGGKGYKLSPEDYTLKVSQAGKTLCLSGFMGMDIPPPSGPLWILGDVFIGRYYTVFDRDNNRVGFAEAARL
Outline: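 FRET read-out: a fluorophore/quencher-labelled peptide substrate is cleaved by 9 nM Cat D (recombinant, CHO-expressed) following a one-hour preincubation with inhibitor dilutions in DMSO. Tris buffer added to neutralize pH ends the reaction before fluorescence measurement.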

[1] = tested on: Aβ40 in conditioned medium of cells stably expressing Amyloid Precursor Protein (APP); assay: In vitro BACE cell-based assay (HEK cell assay), Aβ40 sandwich ELISA; details: Homo sapiens, HEK293
Outline: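 Aβ40 in conditioned medium was quantified by time-resolved fluorescence sandwich ELISA (pAb40 capture 3 h at 4 °C, biotin-6E10 detection 2 h at 4 °C) after 24 h compound exposure of APP-expressing cells. Doses spanned 10 points from 100 μM or 10 μM top, 0.1% DMSO; IC50 was derived from percent of control.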

[2] = target: Beta Secretase enzyme (BACE1) (Homo sapiens, UniProt P56817); assay: In vitro enzymatic BACE FRET assay; format: biochemical; details: read-out: BACE1 FRET assay IC50
Chain of Beta Secretase enzyme (BACE1) (P56817 46-501): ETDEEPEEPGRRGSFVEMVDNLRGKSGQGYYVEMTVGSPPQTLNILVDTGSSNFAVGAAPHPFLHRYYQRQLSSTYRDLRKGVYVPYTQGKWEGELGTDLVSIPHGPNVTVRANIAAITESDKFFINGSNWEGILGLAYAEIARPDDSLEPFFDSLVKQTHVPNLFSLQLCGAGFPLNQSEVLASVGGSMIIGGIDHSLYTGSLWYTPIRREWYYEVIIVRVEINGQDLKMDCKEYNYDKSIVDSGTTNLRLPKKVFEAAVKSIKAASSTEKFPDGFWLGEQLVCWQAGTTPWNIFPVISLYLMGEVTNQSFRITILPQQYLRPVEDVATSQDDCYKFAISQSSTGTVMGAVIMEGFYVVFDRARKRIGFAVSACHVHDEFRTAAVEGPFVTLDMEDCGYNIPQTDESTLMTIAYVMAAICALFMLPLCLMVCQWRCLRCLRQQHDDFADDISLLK
Outline: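 Readout: dequenched fluorescence (ex 488 nm/[…]) after neutralizing with Tris buffer. Reactions, begun by adding 50 nM quenched peptide substrate spanning the BACE cleavage site, were incubated one hour at pH 4.2 in 0.05 M acetate with 100 uM genapol and 10% final DMSO.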

Structure (SMILES)	IC50 (Cathepsin D (Cat D)) [nM]	IC50 ([1]; average IC50, HEK cell assay) [nM]	IC50 ([2]; average IC50, enzyme assay) [nM]	IC50 [1] [nM]	IC50 [2] [nM]
Cc1cc(C#N)cnc1C(=O)Nc1ccc(F)c([C@]2(CF)CS(=O)(=O)C3(CCC3)C(N)=N2)c1 [Example 368, N-(3-((7S)-9-amino-7-(fluoromethyl)-5,5-dioxido-5-thia-8-azaspiro[3.5]non-8-en-7-yl)-4-fluorophenyl)-5-cyano-3-methyl-2-pyridinecarboxamide]	222000	4.6	0.64		
Cc1cc(C(F)F)cnc1C(=O)Nc1ccc(F)c([C@]2(CF)CS(=O)(=O)C3(CCC3)C(N)=N2)c1 [Example 369, N-(3-((7S)-9-amino-7-(fluoromethyl)-5,5-dioxido-5-thia-8-azaspiro[3.5]non-8-en-7-yl)-4-fluorophenyl)-5-(difluoromethyl)-3-methyl-2-pyridinecarboxamide]	233000			12.3	1.4
COCc1cc(Cl)cnc1C(=O)Nc1ccc(F)c([C@]2(CF)CS(=O)(=O)C3(CCC3)C(N)=N2)c1 [Example 370, N-(3-((7S)-9-amino-7-(fluoromethyl)-5,5-dioxido-5-thia-8-azaspiro[3.5]non-8-en-7-yl)-4-fluorophenyl)-5-chloro-3-(methoxymethyl)-2-pyridinecarboxamide]	> 400000			27.3	0.81
Cc1cc(OCC2CC2)cnc1C(=O)Nc1ccc(F)c([C@]2(CF)CS(=O)(=O)C3(CCC3)C(N)=N2)c1 [Example 371, N-(3-((7S)-9-amino-7-(fluoromethyl)-5,5-dioxido-5-thia-8-azaspiro[3.5]non-8-en-7-yl)-4-fluorophenyl)-5-(cyclopropylmethoxy)-3-methyl-2-pyridinecarboxamide]	391000			77	1.56
N#Cc1cnc(C(=O)Nc2ccc(F)c([C@]3(CF)CS(=O)(=O)C4(CCC4)C(N)=N3)c2)c(Cl)c1 [Example 372, N-(3-((7S)-9-amino-7-(fluoromethyl)-5,5-dioxido-5-thia-8-azaspiro[3.5]non-8-en-7-yl)-4-fluorophenyl)-3-chloro-5-cyano-2-pyridinecarboxamide]	367000			7.1	0.72
COc1cnc(C(=O)Nc2ccc(F)c([C@]3(CF)CS(=O)(=O)C4(CCC4)C(N)=N3)c2)c(C)c1 [Example 373, N-(3-((7S)-9-amino-7-(fluoromethyl)-5,5-dioxido-5-thia-8-azaspiro[3.5]non-8-en-7-yl)-4-fluorophenyl)-5-methoxy-3-methyl-2-pyridinecarboxamide]	197000			14.8	2.45
Cc1cc(OCC(F)(F)F)cnc1C(=O)Nc1ccc(F)c([C@]2(CF)CS(=O)(=O)C3(CCC3)C(N)=N2)c1 [Example 374, N-(3-((7S)-9-amino-7-(fluoromethyl)-5,5-dioxido-5-thia-8-azaspiro[3.5]non-8-en-7-yl)-4-fluorophenyl)-3-methyl-5-(2,2,2-trifluoroethoxy)-2-pyridinecarboxamide]	630000			61.6	1.1
COc1cc(Cl)cnc1C(=O)Nc1ccc(F)c([C@]2(CF)CS(=O)(=O)C3(CCC3)C(N)=N2)c1 [Example 375, N-(3-((7S)-9-amino-7-(fluoromethyl)-5,5-dioxido-5-thia-8-azaspiro[3.5]non-8-en-7-yl)-4-fluorophenyl)-5-chloro-3-methoxy-2-pyridinecarboxamide]	781000			29.8	2.9
CC1(C)C(N)=N[C@](CF)(c2cc(NC(=O)c3cnc(C(F)F)cn3)ccc2F)CS1(=O)=O [Example 376, N-(3-((3S)-5-amino-3-(fluoromethyl)-6,6-dimethyl-1,1-dioxido-3,6-dihydro-2H-1,4-thiazin-3-yl)-4-fluorophenyl)-5-(difluoromethyl)-2-pyrazinecarboxamide]	172000			61.5	2.23
COc1cnc(C(=O)Nc2ccc(F)c([C@]3(CF)CS(=O)(=O)C(C)(C)C(N)=N3)c2)c(C)c1 [Example 377, N-(3-((3S)-5-amino-3-(fluoromethyl)-6,6-dimethyl-1,1-dioxido-3,6-dihydro-2H-1,4-thiazin-3-yl)-4-fluorophenyl)-5-methoxy-3-methyl-2-pyridinecarboxamide]	335000			9.8	3
CC1(C)C(N)=N[C@](CF)(c2cc(NC(=O)c3ncc(F)cc3F)ccc2F)CS1(=O)=O [Example 378, N-(3-((3S)-5-amino-3-(fluoromethyl)-6,6-dimethyl-1,1-dioxido-3,6-dihydro-2H-1,4-thiazin-3-yl)-4-fluorophenyl)-3,5-difluoro-2-pyridinecarboxamide]	> 400000			18	1.6
CC1(C)C(N)=N[C@](CF)(c2cc(NC(=O)c3ncc(C(F)(F)F)cc3Cl)ccc2F)CS1(=O)=O [Example 379, N-(3-((3S)-5-amino-3-(fluoromethyl)-6,6-dimethyl-1,1-dioxido-3,6-dihydro-2H-1,4-thiazin-3-yl)-4-fluorophenyl)-3-chloro-5-(trifluoromethyl)-2-pyridinecarboxamide]	775000			11.5	0.99
CC1(C)C(N)=N[C@](CF)(c2cc(NC(=O)c3ncc(Cl)nc3Cl)ccc2F)CS1(=O)=O [Example 380, N-(3-((3S)-5-amino-3-(fluoromethyl)-6,6-dimethyl-1,1-dioxido-3,6-dihydro-2H-1,4-thiazin-3-yl)-4-fluorophenyl)-3,5-dichloro-2-pyrazinecarboxamide]	282000			999	1.8
C=Cc1cc(Cl)cnc1C(=O)Nc1ccc(F)c([C@]2(CF)CS(=O)(=O)C(C)(C)C(N)=N2)c1 [Example 381, N-(3-((3S)-5-amino-3-(fluoromethyl)-6,6-dimethyl-1,1-dioxido-3,6-dihydro-2H-1,4-thiazin-3-yl)-4-fluorophenyl)-5-chloro-3-ethenyl-2-pyridinecarboxamide]	194000			53.9	0.86
COc1cc(Cl)cnc1C(=O)Nc1ccc(F)c([C@]2(CF)CS(=O)(=O)C(C)(C)C(N)=N2)c1 [Example 382, N-(3-((3S)-5-amino-3-(fluoromethyl)-6,6-dimethyl-1,1-dioxido-3,6-dihydro-2H-1,4-thiazin-3-yl)-4-fluorophenyl)-5-chloro-3-methoxy-2-pyridinecarboxamide]	> 400000			17.3	1.8
CC1(C)C(N)=N[C@](CF)(c2cc(NC(=O)c3ccc(C(F)(F)F)cn3)ccc2F)CS1(=O)=O [Example 383, N-(3-((3S)-5-amino-3-(fluoromethyl)-6,6-dimethyl-1,1-dioxido-3,6-dihydro-2H-1,4-thiazin-3-yl)-4-fluorophenyl)-5-(trifluoromethyl)-2-pyridinecarboxamide]	217000			20	2.62
CC1(C)C(N)=N[C@](C)(c2cc(Nc3ncnc4cc(C#N)cnc34)cnc2F)CS1(=O)=O [Example 384, 4-((5-((3R)-5-amino-3,6,6-trimethyl-1,1-dioxido-3,6-dihydro-2H-1,4-thiazin-3-yl)-6-fluoro-3-pyridinyl)amino)pyrido[3,2-d]pyrimidine-7-carbonitrile]	47300			23.9	6.36
CC1(C)C(N)=N[C@](C)(c2cc(Nc3nccc4cc(C#N)cnc34)cnc2F)CS1(=O)=O [Example 385, 8-((5-((3R)-5-amino-3,6,6-trimethyl-1,1-dioxido-3,6-dihydro-2H-1,4-thiazin-3-yl)-6-fluoro-3-pyridinyl)amino)-1,7-naphthyridine-3-carbonitrile]	67600			3.7	2.62
C[C@@]1(c2cc(Nc3nccc4cc(C#N)cnc34)cnc2F)CS(=O)(=O)C2(CCC2)C(N)=N1 [Example 386, 8-((5-((7R)-9-amino-7-methyl-5,5-dioxido-5-thia-8-azaspiro[3.5]non-8-en-7-yl)-6-fluoro-3-pyridinyl)amino)-1,7-naphthyridine-3-carbonitrile]	54700			14.1	4.09
CC1(C)C(N)=N[C@](CF)(c2cc(Nc3nccc4cc(C#N)cnc34)ccc2F)CS1(=O)=O [Example 387, 8-((3-((3S)-5-amino-3-(fluoromethyl)-6,6-dimethyl-1,1-dioxido-3,6-dihydro-2H-1,4-thiazin-3-yl)-4-fluorophenyl)amino)-1,7-naphthyridine-3-carbonitrile]	117000			5.3	0.44
Cc1cc(Cl)cnc1C(=O)Nc1ccc(F)c([C@]2(C)CS(=O)(=O)[C@@](C)(F)C(N)=N2)c1 [Example 388, N-(3-((3R,6R)-5-amino-6-fluoro-3,6-dimethyl-1,1-dioxido-3,6-dihydro-2H-1,4-thiazin-3-yl)-4-fluorophenyl)-5-chloro-3-methyl-2-pyridinecarboxamide]	230000			47.9	0.4
CC1(C)C(N)=N[C@](CF)(c2cc(NC(=O)c3ccc(OCC#CCF)cn3)ccc2F)CS1(=O)=O [Example 389, N-(3-((3S)-5-amino-3-(fluoromethyl)-6,6-dimethyl-1,1-dioxido-3,6-dihydro-2H-1,4-thiazin-3-yl)-4-fluorophenyl)-5-((4-fluoro-2-butyn-1-yl)oxy)-2-pyridinecarboxamide]	268000			1.4	0.26
